Experimental data as given in the supplement of paper PMC13380429.

Experiments:
Conditions in all cases: 72 h
Calu-3 [1] = test: relative viability EC50 (midpoint between 100% and the lowest measured viability); higher = less toxic
HepG2 [2] = test: as above
Vero E6 [3] = test: as above
U2OS [4] = test: as above
Caco-2 [5] = test: as above
Calu-3 [6] = test: cell viability relative to DMSO; higher = less toxic
HepG2 [7] = test: as above
Vero E6 [8] = test: as above
U2OS [9] = test: as above
Caco-2 [10] = test: as above
Calu-3 [11] = test: drug sensitivity score (DSS) for viability; higher = more toxic; extreme values may be limits of the assay
HepG2 [12] = test: as above
Vero E6 [13] = test: as above
U2OS [14] = test: as above
Caco-2 [15] = test: as above

Structure (SMILES) | relative viability EC50 (Calu-3 [1]) [µM] | relative viability EC50 (HepG2 [2]) [µM] | relative viability EC50 (Vero E6 [3]) [µM] | relative viability EC50 (U2OS [4]) [µM] | relative viability EC50 (Caco-2 [5]) [µM] | cell viability (Calu-3 [6]; 1 nM) [%] | cell viability (Calu-3 [6]; 10 nM) [%] | cell viability (Calu-3 [6]; 100 nM) [%] | cell viability (Calu-3 [6]; 1000 nM) [%] | cell viability (Calu-3 [6]; 10000 nM) [%] | cell viability (HepG2 [7]; 1 nM) [%] | cell viability (HepG2 [7]; 10 nM) [%] | cell viability (HepG2 [7]; 100 nM) [%] | cell viability (HepG2 [7]; 1000 nM) [%] | cell viability (HepG2 [7]; 10000 nM) [%] | cell viability (Vero E6 [8]; 1 nM) [%] | cell viability (Vero E6 [8]; 10 nM) [%] | cell viability (Vero E6 [8]; 100 nM) [%] | cell viability (Vero E6 [8]; 1000 nM) [%] | cell viability (Vero E6 [8]; 10000 nM) [%] | cell viability (U2OS [9]; 1 nM) [%] | cell viability (U2OS [9]; 10 nM) [%] | cell viability (U2OS [9]; 100 nM) [%] | cell viability (U2OS [9]; 1000 nM) [%] | cell viability (U2OS [9]; 10000 nM) [%] | cell viability (Caco-2 [10]; 1 nM) [%] | cell viability (Caco-2 [10]; 10 nM) [%] | cell viability (Caco-2 [10]; 100 nM) [%] | cell viability (Caco-2 [10]; 1000 nM) [%] | cell viability (Caco-2 [10]; 10000 nM) [%] | drug sensitivity score (Calu-3 [11]) | drug sensitivity score (HepG2 [12]) | drug sensitivity score (Vero E6 [13]) | drug sensitivity score (U2OS [14]) | drug sensitivity score (Caco-2 [15])
CC1(C)CN2C(CS/C(=N\C3CCCCC3)NC3CCCCC3)=CSC2=N1 [IT1t] | > 10 | > 10 | > 10 | > 10 | > 10 | 96.4 | 116 | 100 | 89.7 | 75.4 | 96.7 | 102 | 96.7 | 102 | 88.8 | 94.5 | 95.7 | 92.1 | 99.4 | 96.9 | 97.1 | 95.8 | 102 | 97.5 | 88.8 | 91.6 | 87.6 | 99.5 | 94.8 | 82 | 2.2 | 0 | 0 | 0.1 | 0
CCCCc1ccc(NS(=O)(=O)c2ccc(F)cc2)cc1 | > 10 | > 10 | > 10 | > 10 | > 10 | 93.2 | 87.6 | 100 | 98.5 | 102 | 101 | 114 | 86.6 | 99.4 | 86.5 | 101 | 101 | 99.9 | 99.1 | 96.2 | 97.4 | 96.2 | 99 | 101 | 100 | 94.9 | 87.2 | 98.6 | 93.3 | 88.5 | 0 | 1.6 | 0 | 0 | 0
COc1cc(C)nc(-n2nc(C)cc2OC)n1 [epirizole] | > 10 | > 10 | > 10 | > 10 | > 10 | 91.9 | 92.2 | 88.3 | 97.3 | 86 | 103 | 96.7 | 105 | 94 | 97.8 | 112 | 99.3 | 110 | 105 | 94.9 | 95.1 | 101 | 94.8 | 99.8 | 97 | 83.5 | 92.7 | 82.3 | 97.4 | 89 | 0 | 0 | 0 | 0 | 0
OCc1cccnc1 [nicotinyl-alcohol-tartrate] | > 10 | > 10 | > 10 | > 10 | > 10 | 96.6 | 100 | 92.7 | 99.3 | 96.4 | 95.4 | 102 | 91.2 | 104 | 96.1 | 92.6 | 101 | 87.8 | 101 | 91.8 | 102 | 104 | 96.7 | 100 | 95.5 | 97.8 | 97 | 102 | 96.1 | 106 | 0 | 0 | 0 | 0 | 0
CCc1cc2c(c(CC)n1)CCC(=O)N2Cc1ccc(-c2ccccc2-c2nnn[nH]2)cc1 [ZD-7155] | > 10 | > 10 | > 10 | > 10 | > 10 | 111 | 99.8 | 97 | 95.3 | 94.7 | 86.1 | 97.8 | 91.1 | 99.6 | 102 | 92.5 | 96.2 | 91.6 | 97.1 | 102 | 96.2 | 97.4 | 102 | 99.3 | 101 | 97.5 | 86.9 | 91.5 | 96.8 | 109 | 0 | 0 | 0 | 0 | 0
Cc1cc(-c2ccc(CC(=O)Nc3ccc(-c4cccnc4)cc3)cc2)ccn1 [wnt-c59] | > 10 | > 10 | > 10 | > 10 | > 10 | 106 | 106 | 101 | 98 | 83.6 | 96.3 | 110 | 94.5 | 103 | 81.8 | 97.1 | 101 | 100 | 99.5 | 102 | 93.9 | 93.6 | 94.8 | 92.9 | 91.3 | 104 | 94.8 | 109 | 96.1 | 85 | 0.5 | 0.3 | 0 | 0 | 0.6
C[C@@H]1O[C@@H](OC[C@H]2O[C@@H](Oc3c(-c4ccc(O)c(O)c4)oc4cc(O)cc(O)c4c3=O)[C@H](O)[C@@H](O)[C@@H]2O)[C@H](O)[C@H](O)[C@H]1O [rutin] | > 10 | > 10 | > 10 | > 10 | > 10 | 107 | 90.4 | 102 | 85.9 | 101 | 104 | 101 | 86 | 106 | 98.1 | 98.6 | 100 | 98.8 | 111 | 104 | 101 | 107 | 96.1 | 98.5 | 102 | 118 | 98.9 | 115 | 101 | 113 | 0 | 0 | 0 | 0 | 0
O=C(Nc1c(Cl)cncc1Cl)c1ccc(OC(F)F)c(OCC2CC2)c1 [roflumilast] | > 10 | > 10 | > 10 | > 10 | > 10 | 89.1 | 107 | 94.2 | 93.8 | 98.6 | 106 | 96.9 | 101 | 101 | 128 | 101 | 91.2 | 99.3 | 102 | 103 | 96.4 | 98.5 | 94.2 | 94.8 | 99.5 | 104 | 101 | 97.3 | 100 | 101 | 0 | 0 | 0 | 0 | 0
COc1ccc(N(C)c2nc(C)nc3ccccc23)cc1 [verubulin] | 0.0151 | 0.0069 | 0.0037 | 0.0133 | 0.0156 | 94.9 | 77.2 | 46.6 | 42.3 | 40.3 | 108 | 52.4 | 34.3 | 36.3 | 41.4 | 93 | 32.6 | 21.4 | 23.9 | 27.9 | 102 | 72.6 | 17.3 | 18 | 18.3 | 103 | 76.2 | 40.5 | 38.3 | 34.6 | 20.2 | 26.2 | 33.5 | 29.6 | 22.4
O=C(Nc1nc(-c2cc(Cl)cs2)c(N2CCN(C3CCCCC3)CC2)s1)c1cnc(N2CCC(C(=O)O)CC2)c(Cl)c1 [avatrombopag] | > 10 | > 10 | > 10 | > 10 | > 10 | 96.2 | 100 | 93.9 | 102 | 88.9 | 99.4 | 109 | 115 | 98 | 110 | 100 | 95 | 102 | 102 | 92 | 103 | 95.5 | 104 | 103 | 95.1 | 94.9 | 88.7 | 102 | 105 | 107 | 0 | 0 | 0 | 0 | 0
C=C(C)CN1CC[C@]23c4c5ccc(O)c4O[C@H]2c2[nH]c4ccccc4c2C[C@@]3(O)C1C5 [SDM25N] | > 10 | > 10 | > 10 | > 10 | > 10 | 92.8 | 86.2 | 93.5 | 110 | 82.4 | 92.7 | 101 | 100 | 102 | 80.7 | 90.7 | 93.1 | 95.6 | 96.6 | 88.8 | 93.7 | 100 | 100 | 101 | 91.8 | 92.9 | 102 | 89.9 | 101 | 86.4 | 0.2 | 0.4 | 0 | 0 | 0.1
